# Reference: US11739098B2 (BRISTOL-MYERS SQUIBB COMPANY, priority 2017, dated 2023)
# Assays:
# Format in all cases: cell-based
# human TLR9 = molecular target: T1, human TLR9 (Homo sapiens, UniProt Q9NR96); assay: TLR9 inhibition reporter assay (HEK-Blue cells, SEAP reporter, ODN2006 stimulation); conditions: HEK-Blue cells overexpressing human TLR9, SEAP reporter, ODN2006 5 nM
# T1 construct: host or cells: HEK-Blue cells (HEK293-derived reporter line)
# T1 sequence (Q9NR96 26-1032): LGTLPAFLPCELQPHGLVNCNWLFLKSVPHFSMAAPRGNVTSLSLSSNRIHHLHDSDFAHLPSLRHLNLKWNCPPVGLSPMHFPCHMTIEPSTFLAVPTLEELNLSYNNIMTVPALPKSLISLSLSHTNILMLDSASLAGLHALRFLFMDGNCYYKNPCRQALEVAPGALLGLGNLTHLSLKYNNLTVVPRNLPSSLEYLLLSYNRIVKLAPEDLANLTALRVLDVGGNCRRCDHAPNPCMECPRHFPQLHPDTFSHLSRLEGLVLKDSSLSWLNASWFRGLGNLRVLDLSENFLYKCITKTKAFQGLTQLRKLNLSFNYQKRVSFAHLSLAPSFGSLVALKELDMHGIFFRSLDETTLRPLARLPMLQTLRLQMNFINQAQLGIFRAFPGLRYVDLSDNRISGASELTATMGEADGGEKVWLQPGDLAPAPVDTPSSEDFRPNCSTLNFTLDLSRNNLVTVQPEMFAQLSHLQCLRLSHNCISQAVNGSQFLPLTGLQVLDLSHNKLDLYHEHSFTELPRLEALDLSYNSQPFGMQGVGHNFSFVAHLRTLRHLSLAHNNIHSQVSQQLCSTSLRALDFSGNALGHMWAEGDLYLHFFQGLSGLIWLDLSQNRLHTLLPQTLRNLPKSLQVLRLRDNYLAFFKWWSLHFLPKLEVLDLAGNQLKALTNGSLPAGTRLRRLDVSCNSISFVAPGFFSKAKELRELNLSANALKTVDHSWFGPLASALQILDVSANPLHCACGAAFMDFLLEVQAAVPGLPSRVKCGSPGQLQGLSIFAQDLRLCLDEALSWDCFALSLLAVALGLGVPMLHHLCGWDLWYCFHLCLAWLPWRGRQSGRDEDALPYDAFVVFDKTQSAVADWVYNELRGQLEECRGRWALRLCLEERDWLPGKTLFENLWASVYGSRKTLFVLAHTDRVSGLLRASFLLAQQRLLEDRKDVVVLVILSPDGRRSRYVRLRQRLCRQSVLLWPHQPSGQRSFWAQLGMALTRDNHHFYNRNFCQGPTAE
# Procedure, shortened: (§1)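 After 22 h at 37 °C, SEAP secretion was measured from human TLR7-, TLR8- or TLR9-expressing HEK-Blue reporter cells given compound (0.05 nM–50 μM) 30 min before agonist: 7.5 μM gardiquimod, 15.9 μM R848 or 5 nM ODN2006 respectively. Percent inhibition referenced to agonist-plus-DMSO and known-inhibitor wells.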
# human TLR7 = molecular target: T2, human TLR7 (Homo sapiens, UniProt Q9NYK1); assay: TLR7 inhibition reporter assay (HEK-Blue cells, SEAP reporter, gardiquimod stimulation); conditions: HEK-Blue cells overexpressing human TLR7, SEAP reporter, gardiquimod 7.5 μM
# T2 construct: host or cells: HEK-Blue cells (HEK293-derived reporter line)
# T2 sequence (Q9NYK1 27-1049): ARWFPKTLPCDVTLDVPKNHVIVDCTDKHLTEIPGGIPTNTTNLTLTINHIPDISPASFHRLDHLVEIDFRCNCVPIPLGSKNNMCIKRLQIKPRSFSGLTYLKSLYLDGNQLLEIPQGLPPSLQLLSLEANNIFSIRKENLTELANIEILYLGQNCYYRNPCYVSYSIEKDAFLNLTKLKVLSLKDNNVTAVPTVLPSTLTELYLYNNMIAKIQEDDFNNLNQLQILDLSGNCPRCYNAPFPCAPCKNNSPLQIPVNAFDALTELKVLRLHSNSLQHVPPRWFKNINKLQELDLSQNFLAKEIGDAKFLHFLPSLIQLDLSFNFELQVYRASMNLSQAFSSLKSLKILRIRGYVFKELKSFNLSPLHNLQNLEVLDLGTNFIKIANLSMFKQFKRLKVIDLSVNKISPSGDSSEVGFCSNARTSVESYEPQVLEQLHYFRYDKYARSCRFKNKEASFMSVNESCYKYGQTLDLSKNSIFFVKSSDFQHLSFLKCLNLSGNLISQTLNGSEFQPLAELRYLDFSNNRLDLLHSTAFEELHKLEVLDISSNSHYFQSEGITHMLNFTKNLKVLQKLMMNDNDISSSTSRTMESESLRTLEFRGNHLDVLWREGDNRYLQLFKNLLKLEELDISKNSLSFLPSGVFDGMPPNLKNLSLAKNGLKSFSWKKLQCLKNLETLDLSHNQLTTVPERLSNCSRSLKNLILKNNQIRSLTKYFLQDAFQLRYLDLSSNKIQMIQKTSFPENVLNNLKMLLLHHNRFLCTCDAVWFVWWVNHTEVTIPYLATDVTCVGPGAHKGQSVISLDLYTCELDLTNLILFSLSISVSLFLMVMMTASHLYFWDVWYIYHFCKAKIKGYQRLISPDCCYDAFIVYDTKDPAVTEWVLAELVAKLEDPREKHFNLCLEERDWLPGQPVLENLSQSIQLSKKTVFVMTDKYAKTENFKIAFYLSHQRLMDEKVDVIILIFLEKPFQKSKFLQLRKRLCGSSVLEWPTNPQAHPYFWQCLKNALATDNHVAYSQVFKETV
# Procedure, shortened: as §1
# human TLR8 = molecular target: T3, human TLR8 (Homo sapiens, UniProt Q9NR97); assay: TLR8 inhibition reporter assay (HEK-Blue cells, SEAP reporter, R848 stimulation); conditions: HEK-Blue cells overexpressing human TLR8, SEAP reporter, R848 15.9 μM
# T3 construct: host or cells: HEK-Blue cells (HEK293-derived reporter line)
# T3 sequence (Q9NR97 27-1041): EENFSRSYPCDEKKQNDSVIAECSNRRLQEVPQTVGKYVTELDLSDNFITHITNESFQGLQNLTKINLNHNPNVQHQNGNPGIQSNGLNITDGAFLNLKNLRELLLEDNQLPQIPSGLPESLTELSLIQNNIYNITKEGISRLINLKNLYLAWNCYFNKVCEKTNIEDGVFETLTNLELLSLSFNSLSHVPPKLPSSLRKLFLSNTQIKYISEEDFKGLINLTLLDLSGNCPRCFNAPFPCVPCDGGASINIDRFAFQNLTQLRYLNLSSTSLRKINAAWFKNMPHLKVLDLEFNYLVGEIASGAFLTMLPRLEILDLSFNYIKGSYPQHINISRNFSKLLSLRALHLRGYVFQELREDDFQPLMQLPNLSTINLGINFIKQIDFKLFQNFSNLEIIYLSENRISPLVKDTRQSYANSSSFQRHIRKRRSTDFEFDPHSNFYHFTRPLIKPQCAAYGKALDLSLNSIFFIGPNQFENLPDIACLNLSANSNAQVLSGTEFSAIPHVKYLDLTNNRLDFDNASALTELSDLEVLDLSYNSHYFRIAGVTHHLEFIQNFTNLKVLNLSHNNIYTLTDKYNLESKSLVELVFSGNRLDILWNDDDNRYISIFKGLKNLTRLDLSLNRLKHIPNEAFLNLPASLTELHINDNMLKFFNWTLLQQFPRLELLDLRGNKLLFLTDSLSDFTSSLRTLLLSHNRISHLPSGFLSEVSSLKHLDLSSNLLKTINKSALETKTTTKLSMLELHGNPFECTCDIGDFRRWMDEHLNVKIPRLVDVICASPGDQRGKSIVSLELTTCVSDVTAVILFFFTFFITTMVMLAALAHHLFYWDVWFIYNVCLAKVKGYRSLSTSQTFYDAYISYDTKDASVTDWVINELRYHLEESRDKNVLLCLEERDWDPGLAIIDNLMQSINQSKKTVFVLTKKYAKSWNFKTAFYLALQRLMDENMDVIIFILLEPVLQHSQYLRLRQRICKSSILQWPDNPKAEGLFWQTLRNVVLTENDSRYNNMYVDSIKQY
# Procedure, shortened: as §1
SMILES,IC50 (human TLR9) [µM],IC50 (human TLR7) [µM],IC50 (human TLR8) [µM]
"CC(C)c1c(-c2cnc3cnccn23)[nH]c2ccc(C3CCNCC3)cc12 [Example 194, 3-(3-isopropyl-5-(piperidin-4-yl)-1H-indol-2-yl)imidazo[1,2-a]pyrazine]",0.1 to 1,1 to 50,1 to 50
"Cc1cc(-c2[nH]c3ccc(C4CCN(C(=O)CN(C)C)CC4)cc3c2C(C)C)cc2cccnc12 [Example 529, 2-(dimethylamino)-1-(4-(3-isopropyl-2-(8-methylquinolin-6-yl)-1H-indol-5-yl)piperidin-1-yl) ethan-1-one]",1 to 50,< 0.1,< 0.1
"CC(C)c1c(-c2ccc(C#N)c3ncccc23)[nH]c2ccc(C3CCN(C(=O)CN(C)C)CC3)cc12 [Example 506, 5-(5-(1-(dimethylglycyl)piperidin-4-yl)-3-isopropyl-1H-indol-2-yl)quinoline-8-carbonitrile]",1 to 50,< 0.1,< 0.1
"Cc1cc(-c2[nH]c3ccc(C4CCN(C(=O)CCN5CCS(=O)(=O)CC5)CC4)cc3c2C(C)C)cn2nnnc12 [Example 634, 3-(1,1-dioxidothiomorpholino)-1-(4-(3-isopropyl-2-(8-methyltetrazolo[1,5-a]pyridin-6-yl)-1H-indol-5-yl)piperidin-1-yl)propan-1-one]",> 50,< 0.1,0.1 to 1
"Cc1cn2cc(-c3[nH]c4ccc(C5CCN(C(=O)CN(C)C)CC5)cc4c3C(C)C)cc(C)c2n1 [Example 509, 2-(dimethylamino)-1-(4-(2-(2,8-dimethylimidazo[1,2-a]pyridin-6-yl)-3-isopropyl-1H-indol-5-yl)piperidin-1-yl)ethan-1-one]",0.1 to 1,< 0.1,< 0.1
"Cc1cc(-c2[nH]c3ccc(C4CCN(CC(=O)N(C)C)CC4)cc3c2C(C)C)cn2ccnc12 [Example 398, 2-(4-(3-isopropyl-2-(8-methylimidazo[1,2-a]pyridin-6-yl)-1H-indol-5-yl)piperidin-1-yl)-N,N-dimethylacetamide]",0.1 to 1,< 0.1,< 0.1
"CC(C)c1c(-c2ccn3nncc3c2)[nH]c2ccc(C3CCN(C4COC4)CC3)cc12 [Example 735, 5-(3-isopropyl-5-(1-(oxetan-3-yl)piperidin-4-yl)-1H-indol-2-yl)-[1,2,3]triazolo[1,5-a]pyridine]",1 to 50,< 0.1,0.1 to 1
"Cc1cc(-c2[nH]c3ccc(C4CCNCC4)cc3c2C(C)C)cc2nccnc12 [Example 88, 7-(3-isopropyl-5-(piperidin-4-yl)-1H-indol-2-yl)-5-methylquinoxaline]",1 to 50,< 0.1,0.1 to 1
"CC(C)c1c(-c2cc3c(s2)CNCC3)[nH]c2ccc(C3CCNCC3)cc12 [Example 207, 2-(3-isopropyl-5-(piperidin-4-yl)-1H-indol-2-yl)-4,5,6,7-tetrahydrothieno [2,3-c]pyridine]",< 0.1,0.1 to 1,1 to 50
"Cc1c(-c2[nH]c3ccc(C4CCN(CC(=O)N(C)C)CC4)cc3c2C(C)C)cn2nnnc2c1C [Example 309, 2-(4-(2-(7,8-dimethyltetrazolo[1,5-a]pyridin-6-yl)-3-isopropyl-1H-indol-5-yl)piperidin-1-yl)-N,N-dimethylacetamide]",1 to 50,< 0.1,< 0.1

# The next lines start with the values.
IC50 (human TLR9) [µM],IC50 (human TLR7) [µM],IC50 (human TLR8) [µM],SMILES
1 to 50,< 0.1,< 0.1,"COCCN1CCC(c2ccc3[nH]c(-c4cc(C)n5ncnc5c4)c(C(C)C)c3c2)CC1 [Example 779, 7-(3-isopropyl-5-(1-(2-methoxyethyl)piperidin-4-yl)-1H-indol-2-yl)-5-methyl-[1,2,4]triazolo[1,5-a]pyridine]"
0.1 to 1,< 0.1,< 0.1,"CC(C)c1c(-c2ccnc3[nH]ncc23)[nH]c2ccc(C3CCN(C(=O)CNCCCN(C)C)CC3)cc12 [Example 575, 2-((3-(dimethylamino)propyl)amino)-1-(4-(3-isopropyl-2-(1H-pyrazolo[3,4-b]pyridin-4-yl)-1H-indol-5-yl)piperidin-1-yl)ethan-1-one]"
0.1 to 1,< 0.1,< 0.1,"CCCN1CCC(c2ccc3[nH]c(-c4cc(C)c5ncn(C)c5c4)c(C(C)C)c3c2)CC1 [Example 954, 6-(3-isopropyl-5-(1-propylpiperidin-4-yl)-1H-indol-2-yl)-1,4-dimethyl-1H-benzo[d]imidazole]"
1 to 50,< 0.1,< 0.1,"Cc1cc(-c2[nH]c3ccc(C4CCNCC4)cc3c2C(C)C)cc2ncnn12 [Example 154, 7-(3-isopropyl-5-(piperidin-4-yl)-1H-indol-2-yl)-5-methyl-[1,2,4]triazolo[1,5-a]pyridine]"
1 to 50,< 0.1,0.1 to 1,"CC(C)c1c(-c2ccn3nncc3c2)[nH]c2ccc(C3CCN(CC(=O)N(C)C)CC3)cc12 [Example 302, 2-(4-(2-([1,2,3]triazolo[1,5-a]pyridin-5-yl)-3-isopropyl-1H-indol-5-yl)piperidin-1-yl)-N,N-dimethylacetamide]"
